{
  "source": "patent US6747061B2",
  "about": "“N-substituted dithiocarbamates for the treatment of biological disorders” (AtheroGenics, Inc., priority 2000, dated 2004)",
  "test_system": "cytokine induced oxidatively modified proteins in NHBE cells",
  "test": "OxyBlot oxidized protein analysis",
  "type": "cell-based, human",
  "details": "TNF + IL-4, FIG. 4",
  "protocol": "The OxyBlot™ assay (Intergen) detects oxidative modification of proteins by reactive oxygen species such as hydroxynonenal. As a consequence of the modification, carbonyl groups are introduced into protein side chains by a site-specific mechanism. OxyBlot™ detects these carbonyl groups, which is a hallmark of the oxidation status of proteins.\nNormal human bronchial epithelial cells (NHBE) were purchased from Clonetics. They were cultured in BEGM (Clonetics) media without retinoic acid. In a typical experiment, the cells were seeded in 24-well plates. Media was changed to BEGM without retinoic acid (RA) and hydrocortisone (HC) 24 hr before dosing. Cells were then exposed to compounds in fresh BEGM without RA and HC for 20 min at 37° C., subsequently stimulated with TNF (10 ng/ml) and IL-4 (20 ng/ml) purchased from Boehringer Mannheim for another 20 min at 37° C. All compounds were dissolved in DMSO and the final concentration of DMSO was 0.2%.\nCells were washed 3 times with cold PBS, and lysed in 100 μl/well 1×RIPA buffer (25 mM Tris pH7.6, 150 mM NaCl, 2 mM EDTA, 1% IGEPAC, 0.5% deoxycholate, 0.1% SDS), 50 mM DTT, 1 mM PMSF, […] leupeptin, 1 μl/ml aprotinin. The cell lysates were clarified by centrifugation. 5 μl of the lysates were mixed with 5 μl 12% SDS (OxyBlot™ kit) and 10 μl of 1×2,4-Dintirophenylhydrazin (DNPH) (OxyBlot™ kit). […]",
  "data": [
    {"smiles": "S=C(S)N1CCCC1", "note": "[PTDC, pyrrolidine dithiocarbamate, reference compound]", "values": [
      {"measurement": "inhibition of cytokine induced oxidatively modified proteins", "value": "inhibit"}
    ]}
  ]
}
